Results from patent US20240287477A1, “CATALASE MIMETIC PEPTIDES” (Northwestern University, priority 2023, published 2024).
Square brackets hold non-standard residues; d marks the D form. Ends that are not written are not given here.

Assays:
Format in all cases: cell-based
E-Cadherin (E-Cad) = test: Western blot of epithelial marker E-cadherin in transformed cells, day 5; settings: cells exposed only to 4-OHT
Description: (§1) FIG. 1A. REDOX effects promoted by peptidyl di-copper complex. (A) Oxidized (λex=[…]) and reduced (λex=[…]) roGFP2 signals 30 minutes after exposure to the metallocomplex (Day 1) and at the final of the experiment (Day 5) were measured and the oxidized/reduced ratio was obtained using ImageJ (shown as histogram). FIG. 1B. Representative images of MCF-10AER/cSrc transformation after treatment with 4-hydroxy-tamoxifen (1 μM) registered by Lionheart (phase contrast). FIG. 1C. Western blot analysis of E-Cadherin (E-Cad), Fibronectin (FN1), and Vimentin (Vim) in MCF-10AER/cSrc transformed cells (5 days after 4-OHT treatment). CATm1-peptidyl di-copper complex, as previously reported, DNK01-peptidyl di-copper complex with D-amino acids, sd-single dose, cd-daily doses.
(§2) Experiments were conducted during development of embodiments herein to measure the expression of EMT markers in this system at the end of the experiment (day 5). […] But in cells exposed only to 4-OHT, the levels dropped to almost 50% in comparison to the control cells. In the same FIGURE, the mesenchymal markers Vimentin and Fibronectin were also probed by western blot. […] Transformed cells, 4-OHT treated, expressed 3 times compared to control, and cells also treated with peptides in single doses.

Fibronectin (FN1) = test: Western blot of mesenchymal marker Fibronectin in transformed cells, day 5; settings: 4-OHT treated only
Description: as §1, §2

[1] = tested on: MCF-10A ER/cSrc/NLS-Orp1-roGFP2 cells; test: Nuclear ROS by NLS-roGFP2-Orp1 oxidized/reduced ratio after 4-OHT exposure; settings: peptide 250 μM, CuSO4 500 μM; for ROS levels: day 5
Description: as §1
Lyophilized peptides were resuspended in MOPS buffer (30 mM, pH 7.5) to a concentration of 5 mM; a 50 mM copper solution was prepared in the same buffer. Both solutions were mixed in a 1:2 (peptide:copper) concentration 30 minutes before applying them to the cell culture. The final concentration of the complex in the cell culture was peptide at 250 μM and CuSO4 at 500 μM. The culture was monitored by measuring the ratio I(405/525)/I(488/525) given by the NLS-roGFP2-Orp1.
Exposure to 4-hydroxytamoxifen (4-OHT) transforms MCF-10A ER/cSrc/NLS-Orp1-roGFP2 cells into a tumorous cell line due to the oxidation of the nuclear compartment. Experiments were conducted by measuring the nuclear ROS in these cells. Probe oxidation status was monitored for 5 days after exposure to 4-OHT (FIG. 1A). […] It was not sufficient to keep the ROS levels as low as on day 1. This was due to a disruption of the complex and accumulation of free copper in the media.

MCF-10AER/cSrc = test: Transformation (spiked shape) of cells after 4-hydroxy-tamoxifen, phase contrast imaging; settings: after 4-OHT (1 μM); either in single dose or every day
Description: as §1
Another important observation was the delayed transformation of the cells in the system. After exposure to 4-OHT, cells acquired a spiked shape as soon as day 1 to day 2 (FIG. 1B). This process was delayed for two days when the cells were exposed to Cu^2+-CATm1 or Cu^2+-DNK01 either in single dose or every day.

Substance: 4-hydroxytamoxifen [4-OHT]
- E-cadherin levels in comparison to the control cells (E-Cadherin (E-Cad)): ~50%
- Fibronectin expression compared to control (Fibronectin (FN1)): 3 times

Substance: PHYKHRLH (also: di-copper complex) [CATm1, short peptidyl di-copper complex developed to mimic catalase, as previously reported]
- levels of nuclear oxidants ([1]; day 1, right after exposure (30 minutes), 4-OHT treated cells): lower levels of nuclear oxidants
- ROS levels ([1]; presented everyday with fresh media): keep the ROS in lower levels
- ROS levels ([1]; single dose in day 1): ROS levels increase
- delay of transformation of the cells (spiked shape) (MCF-10AER/cSrc): two

Substance: dPdHdYdKdHdRdLdH ([dP][dH][dY][dK][dH][dR][dL][dH]; also: di-copper complex) [DNK01, peptidyl di-copper complex with D-amino acids]
- delay of transformation of the cells (spiked shape) (MCF-10AER/cSrc): two
